PubChem BioAssay AID256 (DTP/NCI, 2004)
Inconclusive results and toxic doses are left out. The calls were made as follows: active = survival T/C of 150% or more; inactive = T/C below 125% in these data.

Test system: CD2F1 mice, L1210 leukemia ip, survival T/C
Experiment: NCI In Vivo Anticancer Drug Screen. Data for tumor model L1210 Leukemia (intraperitoneal) in CD2F1 (CDF1) mice
Conditions: endpoint: mean survival time, higher = longer survival
In short: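 Each value reflects a quotient of treated over vehicle control outcomes in mice with a transplanted tumor.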

[1] = dose: 50.0 mg/kg/injection, schedule: Q04DX003 (ip), vehicle: saline with Tween-80
[2] = dose: 100.0 mg/kg/injection, schedule: Q01DX009 (ip), vehicle: saline with Tween-80
[3] = dose: 100.0 mg/kg/injection, schedule: Q04DX003 (ip), vehicle: saline with Tween-80
[4] = dose: 200.0 mg/kg/injection, schedule: Q01DX009 (ip), vehicle: saline with Tween-80
[5] = dose: 200.0 mg/kg/injection, schedule: Q04DX003 (ip), vehicle: saline with Tween-80
[6] = dose: 50.0 mg/kg/injection, schedule: Q01DX009 (ip), vehicle: saline with Tween-80
[7] = dose: 400.0 mg/kg/injection, schedule: Q04DX003 (ip), vehicle: saline with Tween-80

Measured: T/C

CCOC(=O)/C(=C\c1ccccc1Cl)C(C)=O
inactive: dose: 25.0 mg/kg/injection, schedule: Q04DX003 (ip), vehicle: saline with Tween-80 103 % of control | [1] 96 % of control | [2] 103 % of control | [3] 96 % of control | [4] 108 % of control | [5] 107 % of control | dose: 400.0 mg/kg/injection, schedule: Q01DX009 (ip), vehicle: saline with Tween-80 87 % of control

OC(CF)CCl (stereo not given)
inactive: [6] 96 % of control | dose: 100.0 mg/kg/injection, schedule: Q04DX003 (ip), vehicle: saline 100 % of control | dose: 200.0 mg/kg/injection, schedule: Q04DX003 (ip), vehicle: saline 121 % of control

CCCc1nc(N)[nH]c(=O)c1CCCCCCCCCCCc1ccccc1
inactive: dose: 75.0 mg/kg/injection, schedule: Q01DX001 (ip), vehicle: saline with Tween-80 98 % of control | dose: 150.0 mg/kg/injection, schedule: Q01DX001 (ip), vehicle: saline with Tween-80 97 % of control | dose: 300.0 mg/kg/injection, schedule: Q01DX001 (ip), vehicle: saline with Tween-80 95 % of control

CC(=O)Oc1cccc2c1C(=O)c1c(OC(C)=O)cccc1C2=O
inactive: dose: 25.0 mg/kg/injection, schedule: Q01DX009 (ip), vehicle: water 102 % of control | dose: 50.0 mg/kg/injection, schedule: Q01DX009 (ip), vehicle: water 93 % of control | dose: 100.0 mg/kg/injection, schedule: Q01DX009 (ip), vehicle: water 96 % of control | dose: 200.0 mg/kg/injection, schedule: Q01DX009 (ip), vehicle: water 88 % of control

Cc1[nH]c2ccc(N=CN(C)C)cc2c1C
inactive: dose: 25.0 mg/kg/injection, schedule: Q04DX002 (ip), vehicle: saline with Tween-80 111 % of control | dose: 50.0 mg/kg/injection, schedule: Q04DX002 (ip), vehicle: saline with Tween-80 111 % of control

CC(Br)C(=O)c1ccc2ncccc2c1 (stereo not given)
inactive: dose: 12.5 mg/kg/injection, schedule: Q04DX002 (ip), vehicle: saline + alcohol 98 % of control | dose: 25.0 mg/kg/injection, schedule: Q04DX002 (ip), vehicle: saline + alcohol 101 % of control | dose: 50.0 mg/kg/injection, schedule: Q04DX002 (ip), vehicle: saline + alcohol 95 % of control

CCCCCCC[CH2][Sn]([CH2]C)([CH2]C)[O]C(C)=O
inactive: dose: 0.25 mg/kg/injection, schedule: Q04DX003 (ip), vehicle: saline 106 % of control | dose: 0.5 mg/kg/injection, schedule: Q04DX003 (ip), vehicle: saline 101 % of control | dose: 0.63 mg/kg/injection, schedule: Q04DX003 (ip), vehicle: saline 93 % of control | dose: 1.0 mg/kg/injection, schedule: Q04DX003 (ip), vehicle: saline 103 % of control | dose: 1.25 mg/kg/injection, schedule: Q04DX003 (ip), vehicle: saline 102 % of control

CCCCCCCCCCCCn1cnc2c(Cl)ncnc21
inactive: dose: 12.5 mg/kg/injection, schedule: Q01DX005 (ip), vehicle: other 102 % of control | dose: 25.0 mg/kg/injection, schedule: Q01DX005 (ip), vehicle: other 96 % of control | dose: 50.0 mg/kg/injection, schedule: Q01DX005 (ip), vehicle: other 100 % of control | dose: 100.0 mg/kg/injection, schedule: Q01DX005 (ip), vehicle: other 94 % of control | dose: 200.0 mg/kg/injection, schedule: Q01DX005 (ip), vehicle: other 100 % of control

CC(=O)OC1CS(=O)(=O)CC1Br (stereo not given)
inactive: dose: 100.0 mg/kg/injection, schedule: Q01DX001 (ip), vehicle: saline with Tween-80 103 % of control | dose: 200.0 mg/kg/injection, schedule: Q01DX001 (ip), vehicle: saline with Tween-80 98 % of control | dose: 400.0 mg/kg/injection, schedule: Q01DX001 (ip), vehicle: saline with Tween-80 98 % of control

COC(=O)C1C2C=CC(C2)C1C(=O)O (stereo not given)
inactive: dose: 100.0 mg/kg/injection, schedule: Q01DX001 (ip), vehicle: saline 100 % of control | dose: 200.0 mg/kg/injection, schedule: Q01DX001 (ip), vehicle: saline 98 % of control | dose: 400.0 mg/kg/injection, schedule: Q01DX001 (ip), vehicle: saline 103 % of control

CC(=O)N1CCC2(CC1)SSC1(CCN(C(C)=O)CC1)S2
inactive: dose: 5.0 mg/kg/injection, schedule: Q01DX009 (ip), vehicle: saline with Tween-80 102 % of control | dose: 5.0 mg/kg/injection, schedule: Q04DX003 (ip), vehicle: saline with Tween-80 92 % of control | dose: 10.0 mg/kg/injection, schedule: Q01DX009 (ip), vehicle: saline with Tween-80 103 % of control | dose: 10.0 mg/kg/injection, schedule: Q04DX003 (ip), vehicle: saline with Tween-80 91 % of control | dose: 20.0 mg/kg/injection, schedule: Q01DX009 (ip), vehicle: saline with Tween-80 100 % of control | dose: 20.0 mg/kg/injection, schedule: Q04DX003 (ip), vehicle: saline with Tween-80 96 % of control

CC(=O)Oc1ccc(Cl)cc1
inactive: [2] 95 % of control | [3] 103 % of control | [4] 98 % of control | [5] 89 % of control | [7] 89 % of control

Cc1cc(=O)n(C)c2ccccc12
inactive: [1] 95 % of control | [3] 103 % of control | [5] 97 % of control

O=C(O)COc1cc(Cl)c(Cl)cc1Cl (tested in a mixture with another compound)
inactive: dose: 100.0 mg/kg/injection, schedule: Q04DX002 (ip), vehicle: saline with Tween-80 96 % of control | dose: 200.0 mg/kg/injection, schedule: Q04DX002 (ip), vehicle: saline with Tween-80 114 % of control

O=C(O)CSc1nc2ccccc2s1
inactive: dose: 25.0 mg/kg/injection, schedule: Q01DX009 (ip), vehicle: saline with Tween-80 96 % of control | [6] 95 % of control | [2] 97 % of control | [3] 93 % of control | [5] 94 % of control | [7] 96 % of control
